Tests used:
[1] = system: EO771 cells; assay: Gene expression in EO771 cells (RNA-seq, quantitative RT-PCR); assay type: cell-based, mouse
Method: Quantitative reverse transcription PCR (RT-PCR): Mouse EO771 cells were treated with and without BML-210 drug for 48 h. Total RNA was isolated from the cells using TRIzol (Ambion, Lot: 260808) and the miRNeasy Mini kit (Qiagen, 157029493, Thermo Scientific). The quality of the RNA was quantified by a Nano Drop 2000 spectrophotometer. A total of 1 μg RNA was reverse transcribed into cDNA using the […] superMix reagent (Quantabio, 66141329). Quantitative PCR was performed using SYBR Green […] low Rox reagent (TaKaRa) on a Quantstudio real-time PCR system (ThermoFisher Scientific). RNA sequencing: Total RNA was extracted from EO771 cells using TRIzol (Ambion) and the miRNeasy Mini kit (Qiagen). The quantity and quality of the RNA was evaluated by an Agilent Bioanalyzer 2100. 100 ng of total RNA from each sample was used, from which ribosomal RNA was removed by the QIAseq FastSelect rRNA Removal HMR Kit (Qiagen). The cDNA library was constructed using the KAPA RNA Hyper Prep Kit (Roche Corporate) and the quality was accessed by the Qubit and Agilent Bioanalyzer. The library pool was sequenced in 100b paired-end read format on NovaSeq 6000 (Illumina) at the Center for Medical Genomics, Indiana University School of Medicine (IUSM). RNA-seq analysis: The reads were mapped to the mouse genome mm10 using STAR (v2.5)65. RNA-seq aligner with the following parameter: “--outSAMmapqUnique 60”. Uniquely mapped sequencing reads were assigned to GENCODE M22 genes using feature Counts (v1.6.2)66 with the following parameters: “-s 2 -p -Q 10”. […] The data were visualized with volcano plot using MATLAB. The gene enrichment analysis on DEGs from the Kyoto Encyclopedia of Genes and Genomes (KEGG) pathway database and Gene Ontology database was performed using the Database for Annotation, Visualization and Integrated Discovery (DAVID) functional analysis69. The analysis was visualized using MATLAB with q value (-log 10) and gene number in each GO and pathway. Gene set enrichment analysis (GSEA) of the antigen processing and presentation pathway was carried out with GSEA software70.

[2] = system: MDA-MB-468 cells; assay: Gene expression in MDA-MB-468 cells (quantitative RT-PCR); assay type: cell-based, human; details: BML-210 1.0 μM, FIG. 4B
[3] = system: EO771 tumors; assay: CyTOF immune profile of EO771 tumors; assay type: in vivo, C57BL/6 mice
Method: Animal studies: All animal experiments were performed in accordance with the National Institutes of Health's Animal Use Guidelines and protocols approved by the Animal Care and Use Committee of Indiana University School of Medicine. […] Each mouse was injected with a total of 2×10^5 tumor cells. 5 mice were used in each group. Tumors were measured in two dimensions using a manual caliper. Tumor volume was calculated using the following formula: V=0.5×length×width×width. Tumor volume was measured every 3 days. Tumors were harvested 22 days after injection. The tumor growth, volume and weight were analyzed. To evaluate the anti-tumor effect of drugs in immunocompetent C57BL/6 mice and immunodeficient nude (NU/J) mice, 2×10^5 EO771 cells were orthotopically injected into fat pad of the 4th mammary gland in female mice. […] For CD4/CD8 depletion experiment, the tumor-bearing mice were randomly divided into 7 groups (n=8 mice/group) including isotype control (rat IgG2a, Bioxcell), isotype control+CUDC-101, isotype control+BML-210, anti-CD8 (Clone: 53-6.72, Bioxcell)+CUDC-101, anti-CD8+BML-210, anti-CD4 (Clone: GK1.5, Bioxcell)+CUDC-101, or anti-CD4+BML-210. Intraperitoneal injection of inhibitors (20 mg kg-1) and anti-CD4/CD8 (10 mg kg-1) were administrated to the mice by 3 times/week for 2 weeks. The tumors were harvested at day 18 (NU/J mice) or day 28 (C57BL/6 mice) for further analyses. In immune checkpoint blockade experiment, 2×10^5 EO771 cells were orthotopically injected into fat pad of the 4th mammary gland in female C57BL/6 mice. From day 10, the tumor-bearing mice were randomly divided into each treatment group (n=8 mice/group), and the mice were treated with IgG2a isotype control antibody (clone 2A3, Bioxcell), BML-210 (20 mg kg-1), anti-PD-1 (200 μg/mouse, Bioxcell), or BML-210 and anti-PD-1 combo. The treatment was done 3 times/week for 2 weeks. Tumors were harvested at day 26 post injection and the tumors were analyzed by IHC staining, flow cytometry, ELISA or CyTOF assay. Mass Cytometry (CyTOF): EO771 tumors in C57BL/6 mice were harvested and dissociated into single cells. 1×10^6 single cells from each sample were suspended in ice-cold buffer (PBS with 0.5% BSA and 0.02% Azide). The antibody panel (Table 1) was used for sample staining. Samples were analyzed using the CyTOF 2 Mass Cytometer (Fluidigm). All the samples were done on bead-based normalization before analysis on Cytobank. CyTOF data were analyzed using viSNE analysis64 in the Cytobank platform. The viSNE analysis uses the Barnes-Hut implementation of the t-Distributed Stochastic Neighbor embedding (tSNE) algorithm. The cell populations were visualized on viSNE as an overlay plot.

[4] = system: mouse melanoma model; details: reported; cited from earlier work

| Structure (SMILES) | expression of antigen processing and presentation DEGs (qPCR) ([1]; EO771, BML-210 1.0 μM, FIG. 4A) | MHC-I genes (H2-D1, H2-K2, B2M), lysosome gene (Lamp1), endosome gene (Hspa8) ([1]; RNA-seq) | genome-wide gene expression profile (GO enrichment) ([1]; RNA-seq) | expression of antigen processing and presentation DEGs (qPCR) [2] | infiltration of PMN-MDSCs ([3]; CD11b+Ly6G+Ly6ClowF4/80−) | Mo-MDSCs ([3]; CD11b+Ly6G-Ly6C+F4/80−) | tumor-associated macrophage (TAM M1 and TAM M2) populations ([3]; mouse, in vivo) | infiltration of immune lymphocytes, particularly CD8+ T effector cells and NK cells ([3]; tumors 26 days post implantation) | CD8+ T cell infiltration and anti-tumor response [4] |
| --- | --- | --- | --- | --- | --- | --- | --- | --- | --- |
| Nc1ccccc1NC(=O)CCCCCCC(=O)Nc1ccccc1 [BML-210] | most of DEGs had higher expression levels | induced | upregulation of genes particularly enriched in lysosome, phagosome, antigen processing and presentation pathways | most of DEGs had higher expression levels | decreased infiltration | increased | No significant differences | notably enhanced infiltration | – |
| c1ccc([C@@H]2C[C@H]2NC2CCNCC2)cc1 [GSK-LSD1] | – | – | – | – | – | – | – | – | promote CD8+ T cell infiltration and anti-tumor response |
